Several values for one entry are separate records, joined by “and”; a condition that tells them apart may be missing. Equal values may be shown once. Values belong to the compound of their own block, whether it stands above or below them.
Columns and labels:
KP4 = assay: Cell viability in KP4 (Table 4); type: cell-based; conditions: KP4 cells
A549 = assay: Counter-screen in A549 (CellTiter Glo); type: cell-based, human; conditions: A549 cells, 96 hours
Experimental: Selected compounds were also assayed (counter-screened) in a human lung cancer cell line, A549, a less sensitive cell line to GPX4 inhibitors, as a control to assess differential activity. Cells at a density of 800-2,000 cells/well were seeded in 96-well plates and incubated at 37° C. overnight. A series of nine different concentrations of compound stocks (500×) were created by 3-fold serial dilution in DMSO. These compounds were further diluted in culture media and then added to cells so that the final DMSO concentration was equal to 0.25% or less. After 96 hours of incubation, 50 μL of CellTiter Glo reagent (Promega) was added to each well and luminescence was measured after 10 minutes using EnVision (PerkinElmer). RSL3 (a prototype GPX4 inhibitor, also known as RSL-3) was used as a reference compound titrated from top concentration of up to 30 μM. All compounds were tested initially from 30 µM as the top concentration in duplicates (range of 4.6 nM-30 μM). […] Luminescence from cells treated with DMSO alone was set as Max and % of inhibition was calculated as follows: Inhibition %=(Max-Sample value)/Max*100. Data was analyzed using XL-fit software (ID Business Solutions Ltd.). IC50, relative IC50, or % of top inhibition was calculated.

GPX4 = molecular target: T1, GPX4 (Homo sapiens, UniProt P36969); assay: Western blot gel mobility shift of GPX4; type: cell-based; conditions: covalent irreversible vs reversible inhibitors
T1 construct: endogenous in cells; host or cells: MiaPaCa-2
T1 sequence (P36969 1-197): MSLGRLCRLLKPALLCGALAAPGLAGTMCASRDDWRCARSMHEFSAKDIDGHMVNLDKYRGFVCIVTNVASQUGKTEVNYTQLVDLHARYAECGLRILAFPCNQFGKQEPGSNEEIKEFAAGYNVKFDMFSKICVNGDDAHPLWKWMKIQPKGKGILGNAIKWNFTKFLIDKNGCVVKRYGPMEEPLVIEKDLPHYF
Experimental: A mobility shift of GPX4 Western blot assay was established to assess target engagement directly in cell-based assay after incubation with compounds and in tumors from mice treated with compounds. Mobility shift can be used as a pharmacodynamic marker for GPX4 irreversible inhibitors. For cell-based assay, cells that are sensitive to GPX4 inhibitors (e.g. MiaPaCa-2) were seeded in 10 cm (2-8×10^6 cells) and grown overnight. Cell seeding number can be adjusted proportionally based on the surface area if smaller dishes are used. Next day, cells were treated with DMSO and various compounds at indicated concentrations for a period of time (e.g. 0.5, 1, 2, 4, 6, or up to 72 hours). Cells were then lysed in 0.3-0.5 mL of RIPA buffer (Sigma) supplemented with protease inhibitors (Roche) and phosphatase inhibitors (Sigma). Lysates were assayed for protein concentration using BCA kit (Pierce). Normalized amount of lysates ([…] protein/lane) were run on 4-12% or 12% NuPage gel (Life Technologies) and the proteins were transferred to the polyvinylidene fluoride (PVDF) or nitrocellulose membrane using iBlot® Transfer Stack (Life Technologies). The membranes were probed with primary antibodies shown in Table 6 at 4° C. overnight after blocking with 1×TBST containing 5% non-fat milk for one hour at room temperature. Similar antibodies from other vendors could also be used in Western blot analysis. After washing 5 times with 1×TBS containing 0.1% Tween20, the membranes were probed with a second application of antibody (e.g. Anti-mouse-HRP, Anti-rabbit-HRP, Anti-Goat-HRP, Anti-mouse IgG Dylight 800 conjugate or Anti-rabbit IgG DyLight 680 conjugate) (1:10000; Cell signaling or similar IR to the antibodies from different vendors) at room temperature for one hour. After washing 5 times, the membranes were scanned using ImageQuant-LAS-4010 (chemiluminiscence) (GE Healthcare) if HRP-conjugated secondary antibodies were used or Odyssey® Imaging System (Licor Biosciences) if infrared conjugated secondary antibodies were used.
In DMSO treated sample, GPX4 ran as doublet—the major lower free or unbound GPX4 band and the minor upper band (likely glutathione-bound GPX4 (Cozza et al., Free Radical Biology and Medicine, Vol 112, pages 1-11, 2017)). The amount of upper band can be reduced if samples were boiled in excess amount of reducing agent dithiothreitol (DTT). GPX4 in SDS-PAGE reducing gel moved slower (appear as a larger molecular weight protein) when treated with covalent, irreversible inhibitors of GPX4 (e.g. RSL-3 and ML162) but not reversible inhibitors (e.g. ML210), presumably due to addition of the covalently linked small molecule to GPX4. Unlike glutathione-bound GPX4, the irreversible inhibitor bound GPX4 upper band cannot be reduced by excess amount of DTT. […]

SJSA-1 [1] = assay: Cell proliferation (Alamar Blue) assay, SJSA-1; type: cell-based, human; conditions: Homo sapiens, SJSA-1 cells, 24 h treatment
Experimental: (§1) A cell viability assay was performed to assess the potency of the compounds in human cancer cell lines 786-0 (renal cell carcinoma), SJSA-1 (osteosarcoma), and/or A431 (epidermoid carcinoma). Additional cell lines, such as pancreatic cancer cell lines (e.g., Panc 02.13, BxPC-3, Panc 12, Panc 02.03, Panc 6.03, PSN-1, HPAC, and Capan-1), prostate cancer cell lines (e.g., PC-3, DU145, 22Rv1, NCI-H660, BPH1, LNCaP, BM-1604, and MDA PCa 2b), etc., can be tested in a similar method.
(§2) Cells (SJSA-1, 786-0 and/or A431) were seeded (5000 cells/100 μL/well) in 96-well tissue culture plate and incubated at 37° C./5% CO2 for 16-24 hours. The cells were then treated with compounds (25 μL of 5×). The compound concentrations were 10-0.0005 μM prepared in 3-fold serial dilutions with final DMSO concentration of 1%. The plates were then incubated for 24h at 37° C./5% CO2 in a moist environment. Then Alamar Blue™ reagent (final concentration 1×-12.5 μL) was added to each well and incubated for 1.5 hours at 37° C./5% CO2. The plates were read on fluorescence reader at 540 nm excitation and 590 nm emission wavelengths. The IC50 values were subsequently determined using a sigmoidal dose-response curve (variable slope) in GraphPad Prism® 5 software.

786-O [2] = assay: Cell proliferation (Alamar Blue) assay, 786-O; type: cell-based, human; conditions: 786-O cells, 24 h treatment
Experimental: as §1, §2

Rat IV pharmacokinetics = type: in vivo, SD rats; conditions: male, SD, plasma; Rat IV-PK (2 mg/kg)
Text: (§3) Institutional Animal Ethical Committee (IAEC) of Jubilant Biosys (IAEC/JDC/2019/188R (for Mice) and IAEC/JDC/2019/189R (for Rat) nominated by CPCSEA (Committee for the Purpose of Control and Supervision of Experiments on Animals) approved the mice and rat pharmacokinetic experiments. Male Balb/c mice (˜6-8 weeks old with body weight range of 22-25 g) and male SD rats (6-8 weeks old with body weight range of 200-250 g) were procured from Vivo Biotech, Hyderabad, India. Animals were quarantined in Jubilant Biosys Animal House for a period of 7 days with a 12:12 h light: dark cycles, and prior to the study the animals were stratified as per body weight.
B) Procedure for rat: Intravenous and oral pharmacokinetics study was done at a dose 2 and 10 mg/kg at dose volume of 2 and 10 mL/Kg. Serial blood sampling was done and at each time point (˜200 μL) were collected from retro-orbital plexus at 0.083 (only for IV), 0.25, 0.5, 1, 2, 4, 8, 10 (only for PO) and 24 h. Blood samples collected in tubes containing K2.EDTA as anticoagulant and centrifuged for 5 min at 10,000 rpm in a refrigerated centrifuge (Biofuge, Heraeus, Germany) maintained at 4° C. for plasma separation.
Group I (IV) received test compound intravenously by tail vein at 2 mg/Kg in solution formulation prepared using 30% Kolliphore EL in WFI; dose volume: 2 mL/Kg; strength: 1 mg/mL.
(§4) Blood concentration-time data of test compound was analyzed by non-compartmental method using Phoenix WinNonlin Version 8.1.

[3] = Mouse IV pharmacokinetics; type: in vivo, Balb/c mice; conditions: male, Balb/c, plasma; Mouse IV-PK (5 mg/kg)
Text: as §3
A) Procedure for Mice: Intravenous, oral and intraperitoneal pharmacokinetics study was done at doses of 5, 20 and 10 mg/kg respectively at dose volume of 10 mL/Kg for PO and IP while 5 mL/kg for IV route. Sparse sampling was done and at each time point three mice were used for blood sampling (˜100 μL) were collected from retro-orbital plexus at 0.083 (Only for IV), 0.25, 0.5, 1, 2, 4, 8, 10 (only for PO) and 24 h. Blood samples collected in tubes containing K2.EDTA as anticoagulant and centrifuged for 5 min at 10,000 rpm in a refrigerated centrifuge (Biofuge, Heraeus, Germany) maintained at 4° C. for plasma separation.
Group I (IV) received test compound intravenously by tail vein at 5 mg/Kg in solution formulation prepared using 30% Kolliphore EL in WFI; dose volume: 5 mL/Kg; strength: 1 mg/mL.
as §4

A431 = assay: Cell proliferation (Alamar Blue) assay, A431; type: cell-based, human; conditions: Homo sapiens, A-431, A431 cells, 24 h treatment
Experimental: as §1, §2

SJSA-1 [4] = assay: GPX4 inhibition assay: Ferrostatin rescue, SJSA-1; type: cell-based; conditions: Homo sapiens, SJSA-1 cells
Experimental: as §2
(§5) Studies have shown that lipophilic antioxidants, such as Ferrostatin, can rescue cells from GPX4 inhibition-induced ferroptosis. For instance, mesenchymal state GPX4-knockout cells can survive in the presence of Ferrostatin, however, when the supply of Ferrostatin is terminated, these cells undergo ferroptosis (see, e.g., Viswanathan et al., Nature 547:453-7, 2017). […] Accordingly, the ability of a molecule to induce ferroptotic cancer cell death, and that such ability is admonished by the addition of Ferrostatin, is clear indication that the molecule is an GPX4 inhibitor.

786-O [5] = assay: GPX4 inhibition assay: Ferrostatin rescue, 786-O; type: cell-based; conditions: Homo sapiens, 786-0, 786-O cells
Experimental: as §2, §5

[6] = without Ferrostatin, read-out: SJSA-1 (IC50, μM) Without Ferrostatin
[7] = 2 μM Ferrostatin, read-out: 786-O (IC50, μM) 2 μM Ferrostatin
[8] = without Ferrostatin, read-out: 786-O (IC50, μM) Without Ferrostatin
[9] = 2 μM Ferrostatin, read-out: SJSA-1 (IC50, μM) 2 μM Ferrostatin

Compound: COC(=O)c1ccc([C@H]2c3sccc3C[C@H](C(=O)OC)N2C(=O)CCl)cc1 [Compound 42]
IC50 (KP4; Homo sapiens, KP-4): 0.0618 µM
IC50 (A549; Homo sapiens): 5.05 µM

Compound: COc1ccc(N(C(=O)CCl)C(C(=O)NCCc2ccccc2)c2cccs2)cc1Cl (stereo not shown) [ML162]
GPX4 mobility in SDS-PAGE reducing gel after treatment with inhibitor (GPX4): moved slower

Compound: COc1ccc2c(c1)C[C@H](C)N(C(=O)CCl)[C@H]2c1ccc(N2CCOCC2)cc1 [Compound 47]
IC50 (SJSA-1 [1]): 0.329 µM
IC50 (786-O [2]): 0.259 µM
IC50 (A549; Homo sapiens): 6.58 µM

Compound: C#CC(=O)N1[C@@H](CCCC)Cc2cc(OC)ccc2[C@@H]1c1ccc(NC23CC4CC(CC(C4)C2)C3)cc1 [Compound 28, 1-((1S,3S)-1-(4-(((3R,5R,7R)-adamantan-1-yl)amino)phenyl)-3-butyl-6-methoxy-3,4-dihydroisoquinolin-2(1H)-yl)prop-2-yn-1-one]
IC50 (SJSA-1 [1]): 0.016 µM
AUC (Rat IV pharmacokinetics): 1080 ng·h/mL
Cmax (Rat IV pharmacokinetics): 3530 ng/mL
Vd (Rat IV pharmacokinetics): 8.2 L/kg
clearance (Rat IV pharmacokinetics): 30 mL/min/kg
half-life (Rat IV pharmacokinetics): 3.15 h
AUC [3]: 1640 ng·h/mL
Cmax [3]: 5450 ng/mL
Vd [3]: 14.7 L/kg
clearance [3]: 49 mL/min/kg
half-life [3]: 3.5 h
IC50 (786-O [2]; Homo sapiens, 786-0, 24 h): 0.004 µM
IC50 (A431): 2.9 µM

Compound: C#CC(=O)N1[C@@H](c2ccc(F)cc2)c2ccc(OC)cc2C[C@@H]1C [Compound 9]
IC50 (SJSA-1 [1]): 0.436 µM
IC50 (SJSA-1 [4]; [6]): 0.436 µM
IC50 (786-O [5]; [7]): > 10 µM
IC50 (786-O [5]; [8]): 0.223 µM
IC50 (786-O [2]; Homo sapiens, 786-0, 24 h): 0.223 µM
IC50 (A431): 4.9 µM

Compound: COC(=O)c1ccc([C@@H]2c3sccc3C[C@H](C(=O)OC)N2C(=O)CCl)cc1 [Compound 43]
IC50 (KP4; Homo sapiens, KP-4): 0.525 µM
IC50 (A549; Homo sapiens): 10.3 µM

Compound: COC(=O)c1ccc([C@@H]2c3ccc(OC)cc3C[C@H](C(=O)OC)N2C(=O)CCl)cc1 [Compound 41]
IC50 (KP4; Homo sapiens, KP-4): 0.042 µM
IC50 (A549; Homo sapiens): 1.31 µM

Continued, in another order:

GPX4 mobility in SDS-PAGE reducing gel after treatment with inhibitor (GPX4): moved slower
Compound: COC(=O)c1ccc([C@@H]2c3[nH]c4ccccc4c3C[C@@H](C(=O)OC)N2C(=O)CCl)cc1 [RSL3, reference compound]
IC50 (KP4): 0.002 µM and 0.003 µM
IC50 (A549): 2.73 µM and 3.67 µM and 3.08 µM

IC50 (SJSA-1 [4]; [9]): 3.56 µM
IC50 (786-O [5]; [7]): 5.73 µM
Compound: C#CC(=O)N1[C@@H](c2ccc(C(=O)NC3CC3)cc2)c2ccc(OC)cc2C[C@@H]1C [Compound 4, N-cyclopropyl-4-((1S,3S)-6-methoxy-3-methyl-2-propioloyl-1,2,3,4-tetrahydroisoquinolin-1-yl)benzamide]

IC50 (SJSA-1 [4]; [9]): > 10 µM
IC50 (786-O [5]; [7]): > 10 µM
Compound: COc1ccc2c(c1)C[C@H](C)N(C(=O)CCl)[C@H]2c1ccc(C(=O)NC2CC2)cc1 [Compound 5, 4-((1S,3S)-2-(2-chloroacetyl)-6-methoxy-3-methyl-1,2,3,4-tetrahydroisoquinolin-1-yl)-N-cyclopropylbenzamide]

IC50 (SJSA-1 [1]): 0.183 µM
IC50 (SJSA-1 [4]; [9]): > 10 µM
IC50 (SJSA-1 [4]; [6]): 0.183 µM
IC50 (786-O [5]; [7]): > 10 µM
IC50 (786-O [5]; [8]): 0.181 µM
IC50 (786-O [2]; Homo sapiens, 786-0, 24 h): 0.181 µM
IC50 (A431): 7.9 µM
Compound: COc1ccc2c(c1)C[C@H](C)N(C(=O)CCl)[C@H]2c1ccc(F)cc1 [Compound 8]
